Here are results for 34 compounds from patent publication US20060094722A1 (Eisai Co., Ltd., priority 2002, published 2006).

Structures can show the parent of a compound that is named as a salt.

A word on the IC50: it is the concentration that gives 50% inhibition.

The target of one assay is T1, DPPIV obtained from swine kidney (Sus scrofa, UniProt P22411).
T1 construct: DPPIV obtained from swine kidney; from tissue; host or cells: swine kidney
T1 sequence (P22411 whole entry): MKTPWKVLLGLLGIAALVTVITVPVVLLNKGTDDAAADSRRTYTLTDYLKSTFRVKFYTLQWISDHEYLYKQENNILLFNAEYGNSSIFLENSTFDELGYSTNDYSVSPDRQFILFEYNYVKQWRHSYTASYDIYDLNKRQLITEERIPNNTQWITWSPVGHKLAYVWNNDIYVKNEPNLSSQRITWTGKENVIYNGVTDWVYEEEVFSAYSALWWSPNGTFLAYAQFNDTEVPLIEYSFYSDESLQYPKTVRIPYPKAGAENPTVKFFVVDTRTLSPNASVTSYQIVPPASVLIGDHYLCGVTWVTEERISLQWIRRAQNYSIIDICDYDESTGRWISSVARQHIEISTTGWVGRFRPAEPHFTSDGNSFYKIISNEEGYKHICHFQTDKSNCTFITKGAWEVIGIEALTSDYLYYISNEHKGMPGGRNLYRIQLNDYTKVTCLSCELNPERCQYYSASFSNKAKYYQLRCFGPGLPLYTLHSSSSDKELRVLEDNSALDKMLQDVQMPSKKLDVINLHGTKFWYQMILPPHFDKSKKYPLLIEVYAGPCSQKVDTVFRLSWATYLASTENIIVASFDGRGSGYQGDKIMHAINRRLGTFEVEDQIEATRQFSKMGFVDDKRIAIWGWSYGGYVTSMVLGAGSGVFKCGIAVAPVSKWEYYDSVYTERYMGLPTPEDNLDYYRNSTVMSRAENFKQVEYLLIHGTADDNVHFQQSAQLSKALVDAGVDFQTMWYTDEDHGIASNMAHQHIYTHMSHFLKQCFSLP
In words: Assay for the DPPIV-inhibiting activity. The settings on record: DPPIV 10 mU/mL; Gly-Pro-p-nitroanilide 0.33 mM; absorbance 405 nm; read-out: IC50. In kind it is biochemical. As to the method: DPPIV obtained from swine kidney was dissolved in a reaction buffer (50 mM Tris-HCl (pH 7.4)/0.1% BSA) at a fmal concentration of 10 mU/mL. A 110 μL aliquot of this enzyme solution was added to the reaction system, and then 15 μL of an agent was added. The reaction solution was incubated at room temperature for 20 minutes. 25 μL of a solution containing 2 mM Gly-Pro-p-nitroanilide was added to the reaction solution (at the final concentration of 0.33 mM) to start the enzyme reaction. The reaction time was 20 minutes. 25 μL of 1N phosphate solution was added to stop the reaction. […] The degree of inhibition to the enzyme reaction was determined, and IC50 was computed based on the absorbance.
Turning to `CC#CCn1c(N2CCNCC2)nc2nc(OC(C(=O)OC)c3ccccc3)n(C)c(=O)c21` (stereo not shown) [Example 4, trifluoroacetate], the IC50 is 211 nM.
As for `CC#CCn1c(N2CCNCC2)nc2nc(OC(C)C(=O)OCC)n(C)c(=O)c21` (stereo not shown) [Example 9, Ethyl 2-[7-(2-butynyl)-1-methyl-6-oxo-8-(piperazin-1-yl)-6,7-dihydro-1H-purin-2-yloxy]propionate], the IC50 is 141 nM.
Take `CC#CCn1c(N2CCNCC2)nc2nc(OCC)n(C)c(=O)c21` [Example 12, 7-(2-Butynyl)-2-ethoxy-1-methyl-8-(piperazin-1-yl)-1,7-dihydropurin-6-one]: the IC50 worked out at 183 nM.
Consider `CC#CCn1c(N2CCNCC2)nc2nc(OCC(=O)OCC)n(C)c(=O)c21` [Example 13, Ethyl[7-(2-butynyl)-1-methyl-6-oxo-8-(piperazin-1-yl)-6,7-dihydro-1H-purin-2-yloxy]acetate], for which the half-inhibitory concentration (IC50) is 125 nM.
On to `CC#CCn1c(N2CCNCC2)nc2nc(OC3(C(=O)OCC)CC3)n(C)c(=O)c21` [Example 16], for which the IC50 is 272 nM.
Take `CC#CCn1c(N2CCNCC2)nc2nc(SCC(=O)O)n(C)c(=O)c21` [Example 79, [7-(2-Butynyl)-1-methyl-6-oxo-8-(piperazin-1-yl)-6,7-dihydro-1H-purin-2-ylsulfanyl]acetic acid trifluoroacetate]: the 50% inhibitory concentration (IC50) turned out to be 35.7 nM.
On the same count and under the same terms, the value for `CC#CCn1c(N2CCNCC2)nc2nc(C(N)=O)n(C)c(=O)c21` [Example 83, 7-(2-Butynyl)-1-methyl-6-oxo-8-(piperazin-1-yl)-6,7-dihydro-1H-purine-2-carboxamide] was 27.4 nM.
`CC#CCn1c(N2CCNCC2)nc2cnn(C)c(=O)c21` [Example 115, 3-(2-Butynyl)-5-methyl-2-(piperazin-1-yl)-3,5-dihydroimidazo[4,5-d]pyridazin-4-one trifluoroacetate]: the IC50 was found to be 185 nM.
Regarding `CC#CCn1c(N2CCNCC2)nc2nc(SCCC)n(C)c(=O)c21` [Example 129, 7-(2-Butynyl)-1-methyl-8-(piperazin-1-yl)-2-propylsulfanyl-1,7-dihydropurin-6-one trifluoroacetate], the half-inhibitory concentration (IC50) was found to be 115 nM.
As for `CC#CCn1c(N2CCNCC2)nc2nc(Oc3ccccc3C(N)=O)n(Cc3ccc(C#N)cc3)c(=O)c21` [Example 235, 2-[7-(2-Butynyl)-1-(4-cyanobenzyl-6-oxo-8-(piperazin-1-yl)-6,7-dihydro-1H-purin-2-yloxy]benzamide trifluoroacetate], the IC50 was 1.44 nM.
In the case of `CC#CCn1c(N2CCNCC2)nc2ccn(CC(=O)c3ccccc3)c(=O)c21` [Example 341, 3-(2-Butynyl)-5-(2-oxo-2-phenylethyl)-2-(piperazin-1-yl)-3,5-dihydroimidazo[4,5-c]pyridin-4-one trifluoroacetate], the IC50 came to 7.32 nM.
The same measure, in the same setting: in the case of `CC#CCn1c(N2CCNCC2)nc2c1c(=O)n(CC(=O)OC)c(=O)n2C` [Example 355, Methyl[7-(2-butynyl)-3-methyl-2,6-dioxo-8-(piperazin-1-yl)-2,3,6,7-tetrahydropurin-1-yl]acetate trifluoroacetate] it was 147 nM; in that of `CC#CCn1c(N2CCNCC2)nc2c1c(=O)n(CC(=O)c1ccccc1)c(=O)n2C` [Example 361, 7-(2-Butynyl)-3-methyl-1-[(2-oxo-2-phenyl)ethyl]-8-(piperazin-1-yl)-3,7-dihydropurine-2,6-dione trifluoroacetate], 0.654 nM; in that of `Cn1c(=O)n(CCc2ccccc2)c(=O)c2c1nc(N1CCNCC1)n2-c1ccccc1Cl` [Example 377, 7-(2-Chlorophenyl)-3-methyl-1-(2-phenethyl)-8-(piperazin-1-yl)-3,7-dihydropurine-2,6-dione trifluoroacetate], 8.77 nM.
For the compound `CC#CCn1c(N2CCNCC2)nc2c1c(=O)n(C)c(=O)n2CC(=O)OC` [Example 398, Methyl[7-(2-butynyl)-1-methyl-2,6-dioxo-8-(piperazin-1-yl)-1,2,6,7-tetrahydropurin-3-yl]acetate trifluoroacetate], the IC50 worked out at 237 nM.
With `CC#CCn1c(N2CCNCC2)nc2c1c(=O)n(C)c(=O)n2CC1CCCO1` (stereo not shown) [Example 400, 7-(2-Butynyl)-3-(2-tetrahydrofuranyl)methyl-1-methyl-8-(piperazin-1-yl)-3,7-dihydropurine-2,6-dione trifluoroacetate], the IC50 is 183 nM.
Take `CC#CCn1c(N2CCNCC2)nc2c1c(=O)n(C)c(=O)n2C(C(=O)OC)c1ccccc1` (stereo not shown) [Example 402, Methyl[7-(2-butynyl)-1-methyl-2,6-dioxo-8-(piperazin-1-yl)-1,2,6,7-tetrahydropurin-3-yl]phenylacetate trifluoroacetate]: the IC50 was 354 nM.
Regarding `CC#CCn1c(N2CCNCC2)nc2c1c(=O)n(C)c(=O)n2CC(=O)c1ccccc1` [Example 404, 7-(2-Butynyl)-3-(2-oxo-2-phenethyl)-1-methyl-8-(piperazin-1-yl)-3,7-dihydropurine-2,6-dione trifluoroacetate], the IC50 was determined as 276 nM.
As to `CC#CCn1c(N2CCNCC2)nc2c1c(=O)n(C)c(=O)n2C(C)C(=O)OCC` (stereo not shown) [Example 405, Ethyl 2-[7-(2-butynyl)-1-methyl-2,6-dioxo-8-(piperazin-1-yl)-1,2,6,7-tetrahydropurin-3-yl]propionate trifluoroacetate], the half-maximal inhibitory concentration (IC50) turned out to be 359 nM.
In the case of `CC#CCn1c(N2CCNCC2)nc2c1c(=O)n(C)c(=O)n2CCOCC` [Example 407, 7-(2-Butynyl)-3-(2-ethoxyethyl)-1-methyl-8-(piperazin-1-yl)-3,7-dihydropurine-2,6-dione trifluoroacetate], the IC50 is 275 nM.
For `CC#CCn1c(N2CCNCC2)nc2c1c(=O)n(C)c(=O)n2C(C)C` [Example 408, 7-(2-Butynyl)-3-isopropyl-1-methyl-8-(piperazin-1-yl)-3,7-dihydropurine-2,6-dione trifluoroacetate], the concentration for half-maximal inhibition (IC50) stood at 340 nM.
For the compound `CC#CCn1c(N2CCNCC2)nc2c1c(=O)n(C)c(=O)n2CC(=O)C(C)(C)C` [Example 409, 7-(2-Butynyl)-3-(3,3-dimethyl-2-oxobutyl)-1-methyl-8-(piperazin-1-yl)-3,7-dihydropurine-2,6-dione trifluoroacetate], the 50% inhibitory concentration (IC50) was determined as 222 nM.
Regarding `CC#CCn1c(N2CCNCC2)nc2c1c(=O)n(C)c(=O)n2C1CCNC1=O` (stereo not shown) [Example 410, 7-(2-Butynyl)-1-methyl-3-(2-oxopyrrolidin-3-yl)-8-(piperazin-1-yl)-3,7-dihydropurine-2,6-dione hydrochloride], the IC50 is 64.9 nM.
With `CC#CCn1c(N2CCNCC2)nc2c1c(=O)n(CC(=O)c1ccccc1)c(=O)n2CCOCC` [Example 413, 7-(2-Butynyl)-3-(2-ethoxyethyl)-1-(2-oxo-2-phenylethyl-8-(piperazin-1-yl)-3,7-dihydropurine-2,6-dione trifluoroacetate], the IC50 turned out to be 1.95 nM.
Regarding `CC#CCn1c(N2CCNCC2)nc2c1c(=O)n(CC(=O)c1ccccc1)c(=O)n2CC(=O)OC` [Example 415, Methyl[7-(2-butynyl)-2,6-dioxo-1-(2-oxo-2-phenylethyl)-8-(pipierazin-1-yl)-1,2,6,7-tetrahydropurin-3-yl]acetate trifluoroacetate], the IC50 was determined as 1.81 nM.

The same assay, now with this note: IC50 (nM), DPPIV 10 mU/mL; Gly-Pro-p-nitroanilide 0.33 mM; absorbance 405 nm.
Take `O=c1c2c(cnn1CCc1ccccc1)nc(N1CCNCC1)n2Cc1ccccc1` [Example 311, 3-Benzyl-5-(2-phenylethyl)-2-(piperazin-1-yl)-3,5-dihydroimidazo[4,5-d]pyridazin-4-one trifluoroacetate]: the IC50 came out at 77.5 nM.
The compound `CC#CCn1c(N2CCNCC2)nc2c1c(=O)[nH]c(=O)n2C` [Example 354, 7-(2-Butynyl)-3-methyl-8-(piperazin-1-yl)-3,7-dihydropurine-2,6-dione] displayed a half-inhibitory concentration (IC50) of 285 nM.
For the compound `C#CCn1c(=O)c2c(nc(N3CCNCC3)n2CC#CC)n(C)c1=O` [Example 357, 7-(2-Butynyl)-3-methyl-8-(piperazin-1-yl)-1-(2-propynyl)-3,7-dihydropurine-2,6-dione trifluoroacetate], the concentration for half-maximal inhibition (IC50) stood at 323 nM.
In the case of `CC#CCn1c(=O)c2c(nc(N3CCNCC3)n2CC#CC)n(C)c1=O` [Example 358, 1,7-bis(2-Butynyl)-3-methyl-8-(piperazin-1-yl)-3,7-dihydropurine-2,6-dione trifluoroacetate], the IC50 was found to be 357 nM.
Still for that read-out and setting: the value for `CC#CCn1c(N2CCNCC2)nc2c1c(=O)n(CC#N)c(=O)n2C` [Example 359, [7-(2-Butynyl)-3-methyl-2,6-dioxo-8-(piperazin-1-yl)-2,3,6,7-tetrahydropurin-1-yl]acetonitrile trifluoroacetate] was 353 nM; that for `CC#CCn1c(N2CCNCC2)nc2c1c(=O)n(CCc1ccccc1)c(=O)n2C` [Example 367, 7-(2-Butynyl)-3-methyl-1-(2-phenylethyl)-8-(piperazin-1-yl)-3,7-dihydropurine-2,6-dione trifluoroacetate] was 4.56 nM.
`CC#CCn1c(N2CCNCC2)nc2c1c(=O)n(C)c(=O)n2CC` [Example 396, 7-(2-Butynyl)-3-ethyl-1-methyl-8-(piperazin-1-yl)-3,7-dihydropurine-2,6-dione trifluoroacetate] showed a concentration for half-maximal inhibition (IC50) of 197 nM.
In turn, `CC#CCn1c(N2CCNCC2)nc2c1c(=O)n(C)c(=O)n2CCC` [Example 403, 7-(2-Butynyl)-3-propyl-1-methyl-8-(piperazin-1-yl)-3,7-dihydropurine-2,6-dione trifluoroacetate] returned an IC50 of 266 nM.
In the case of `CC#CCn1c(N2CCNCC2)nc2c1c(=O)n(CCc1ccccc1)c(=O)n2CC(=O)OCC` [Example 416, Ethyl[7-(2-butynyl)-2,6-dioxo-1-(2-phenethyl)-8-(piperazin-1-yl)-1,2,6,7-tetrahydropurin-3-yl]acetate hydrochloride], the IC50 was determined as 4.02 nM.
